Several values for one entry are separate records, joined by “and”; a condition that tells them apart may be missing. Equal values may be shown once. Marks after values point to notes of the source that are not given here.
Assays:
Meloidogyne incognita = assay: M. incognita miniaturized greenhouse assay on cucumber seedlings (root galling); assay type: in vivo; conditions: cucumber roots, average of triplicate gall rating; for 8 ppm gall ratings: scale 0=0-5%, 1=6-20%, 2=21-50%, 3=51-100% root mass galled; for 1 ppm gall ratings: scale 0-3
Protocol: The test compound is dissolved in an acetone solution and added to water. A sprouted cucumber seedling is placed into a vial with dry sand and the water-chemical solution is added immediately. Twenty four hours later Meloidogyne incognita eggs are added to the vials and 10 to 12 days later the roots are evaluated for nematode galling.
Cucumber seeds are sprouted for 3 days in moist paper towels. Acceptable sprouts should be 3 to 4 cm long with several lateral roots just emerging. Stock solutions of chemistry are prepared in a mixture of acetone and Triton X100 (412 mg in 500 mL) to a final concentration of 5 mg/mL. The chemical stock solution is then added to 10 mL deionized water plus 0.015% Triton X100 and mixed thoroughly. This is enough to test each condition in triplicate. Ten mL dry sand is added to each vial. At this time the solubility of the chemistry is visually determined and recorded as either ppt (large precipitates) or cloudy (fine precipitates). Seedlings are planted by tilting the vial and laying the seedling in the correct orientation so that the cotyledons are just above the sand and then tilting back to cover the radicles with sand. 3.3 ml water/chemical mix is added to each vial and the vials placed in racks under fluorescent light banks. The vials are inoculated two days after planting by adding 500 vermiform M. incognita eggs to each vial in 50 uL of deionized or spring water. The vials are then kept under the fluorescent lamps at ambient room temperature and watered as needed with 1 mL deionized water, usually twice during duration of test. Harvest of the cucumber plants is done 10 to 12 days after inoculation by washing sand off the roots. A root gall rating and visual phytotoxicity rating is assigned using the following scales: Gall rating scale (Gall: % root mass galled): 0=0-5%; 1=6-20%; 2=21-50%; and 3=51-100%. The average of the triplicate gall rating is then calculated: green=0.00-0.33 (no galls); yellow=0.67-1.33 (mild galling); orange=1.67-2.33 (moderate galling); red=2.67-3.00 (severe galling). Visual phytotoxicity scale is also assigned (Vis. tox; visual reduction in root mass compared to the control): rs1=mild stunting; rs2=moderate stunting; rs3=severe stunting.

root knot nematode (RKN) = assay: RKN greenhouse soil assay on cucumber plants; assay type: in vivo, Meloidogyne incognita; conditions: 0 day treatment, rated 14 days after egg inoculation
Excerpt: Cucumber seeds are planted in a sandy soil mixture in two inch square plastic pots. When the cotyledons are fully opened and just as the first leaf begins to emerge, usually 7 days after planting, chemistry for the 7-day treatment is applied. One week later the chemistry for the 0 day treatment is applied. Separate plants are used for each application. The plants are generally in the 1-2 leaf stage now. At least four hours after the chemistry application the pots are inoculated with root knot nematode (RKN) eggs. Plants are rated for galling 14 days after the egg inoculation.
(§1) One milligram of chemistry per four pots is equal to one kilogram per hectare of chemical. A standard test uses four replications. For rates above 2 kg/ha, the desired amount of chemical is weighed into a 30 ml vial (example: 8 kg/ha rate=8 mg chemical in 30 ml vial). The chemical is dissolved in 2 ml of appropriate solvent, generally acetone. For rates below 2 kg/ha, 2 milligrams of chemistry is weighed into the vial and dissolved in 2 ml of the solvent. The appropriate amount of chemical concentrate is then pipetted into a separate 30 ml vial and solvent is added to bring the volume to 2 ml (example 0.5 kg/ha=0.5 ml of concentrate+1.5 ml solvent). Each dissolved concentrate is then brought to a total of 20 milliliters using 0.05% Triton X 100 surfactant solution.
(§2) Pots to be treated are moist but not saturated. To each of four pots, five milliliters of the appropriate chemical solution is pipetted to the media surface making sure to avoid contact with the base of the plant. Immediately following chemical application, using a mist nozzle, the pot surface is wetted sufficiently to saturate the pot watering in the chemistry. The chemical application is done in the morning.
(§3) Nematode eggs, either SCN or RKN, are added to distilled water to create a concentration of 1000 vermiform eggs […]. At least four hours after chemical treatment the eggs are applied to the treated pots plus non-treated check plants. A small hole about 1 cm deep is punched into the pot surface. […]

[1] = system: soybean cyst nematode (SCN); assay: SCN greenhouse soil assay on soybean plants; assay type: in vivo, Heterodera glycines; conditions: 0 day treatment, harvested 28 days after egg inoculation, tests a and b
Excerpt: Soybeans seeds are planted in 100% sand in two inch square plastic pots. Chemical treatment is done when the soybeans show the first trifoliate beginning to emerge about 10 to 12 days after planting. At least four hours after chemical application the nematode soybean cyst nematode (SCN) eggs are applied and 28 days after the egg inoculation the test is harvested.
as §1, §2
as §3, with “surface. One milliliter of the nematode egg slurry is pipetted into the hole. Immediately afterwards the hole is gently covered. Watering of the test plants is then restricted to only water as needed to prevent wilt for a period of 24 hours.” for “surface.”

Row | SMILES | 8 ppm gall ratings (Meloidogyne incognita) | percent control (galling reduction) relative to the control blank treatment, 0 day 1 kg/ha rate (root knot nematode (RKN)) [%] | percent control (cyst reduction) relative to the control blank treatment, 0 day 0.25 kg/ha rate [1] | 1 ppm gall ratings (Meloidogyne incognita)
1 | Clc1ccc(Oc2noc(-c3ccco3)n2)cc1 [Name 3, 3-(4-chlorophenoxy)-5-(furan-2-yl)-1,2,4-oxadiazole] | 0^b | 89 | 79%^a, 79%^b | –
2 | CNC(=O)O/N=C(\SC)C(=O)N(C)C [Oxamyl, reference compound] | – | – | 67%^b | 1.33^e
3 | Clc1ccc(Cc2nsc(-c3ccco3)n2)cc1 [Name 5, 3-(4-chlorobenzyl)-5-(furan-2-yl)-1,2,4-thiadiazole] | 0.67^b | – | – | –
4 | Clc1ccc(-c2coc(-c3ccco3)n2)c(Cl)c1 [Name 6, 4-(2,4-dichlorophenyl)-2-(furan-2-yl)oxazole] | 0.33^c | – | – | –
5 | Clc1cccc(-c2noc(Cc3ccco3)n2)c1 [Name 2, 3-(3-chlorophenyl)-5-(furan-2-ylmethyl)-1,2,4-oxadiazole] | 1.3^a | – | – | –
6 | Clc1ccc(-c2noc(Cc3ccco3)n2)cc1 [Name 1, 3-(4-chlorophenyl)-5-(furan-2-ylmethyl)-1,2,4-oxadiazole] | 1.3^a | – | – | –
7 | Clc1ccc(-c2cnc(Sc3cccs3)o2)cc1 [Name 9, 5-(4-chlorophenyl)-2-(thiophen-2-ylthio)oxazole] | 1.33^d | – | – | –
8 | Clc1ccc(-c2cnc(-n3cccc3)o2)cc1 [Name 10, 5-(4-chlorophenyl)-2-(1H-pyrrol-1-yl)oxazole] | – | 100 | – | 1.33
9 | Clc1cccc(Oc2noc(-c3ccco3)n2)c1 [Name 4, 3-(3-chlorophenoxy)-5-(furan-2-yl)-1,2,4-oxadiazole] | 0^b | 83 | 67% and 78% | –
10 | Clc1ccc(-c2coc(-c3ccco3)n2)cc1 [Name 8, 4-(4-chlorophenyl)-2-(furan-2-yl)oxazole] | 0.67^d | – | – | –
11 | Cc1ccc(-c2coc(-c3ccco3)n2)c(C)c1 [Name 7, 4-(2,4-dimethylphenyl)-2-(furan-2-yl)oxazole] | 1.33^c | – | – | –

Source: patent publication US9820486B2, “Compositions and methods for controlling nematodes” (Monsanto Technology LLC, priority 2009, dated 2017)
